Reference: ChEMBL document CHEMBL5537187, “Discovery of N-(1-(6-Oxo-1,6-dihydropyrimidine)-pyrazole) Acetamide Derivatives as Novel Noncovalent DprE1 Inhibitors against Mycobacterium tuberculosis” (J Med Chem, 2024)
Active and inactive are the calls of the source. The rule behind the calls is not given here.

Tested on: Mycolicibacterium smegmatis
Test: Antimycobacterial activity against Mycobacterium smegmatis overexpressing Mtb DprE1 assessed as inhibition of bacterial growth by resazurin dye based analysis
Type: functional, organism-based

Q: How did the Activity turn out when `CO[C@H]1/C=C/O[C@@]2(C)Oc3c(C)c(O)c4c(O)c(c(/C=N/N5CCN(C)CC5)c(O)c4c3C2=O)NC(=O)/C(C)=C\C=C\[C@H](C)[C@H](O)[C@@H](C)[C@@H](O)[C@@H](C)[C@H](OC(C)=O)[C@@H]1C` [RIFAMPIN] was run?
A: Active
